Data published in publication PMC12655438, “Inhibitory Activity of Calcium and Sodium Ion Channels of Neurotoxic Protoplaythoa variabilis V-Shape Helical Peptide Analogs and Their Neuroprotective Effect In Vitro” (Pharmaceuticals, 2025).
Entries after “also recorded” stand apart in the source; their conditions may differ. Read-outs that look alike come from different tables or passages of the source. Where a SMILES comes first, the peptide text is derived from it. Bridges are numbered along the chain shown (N, C = ends).

Assays:
[1] = test system: sodium inward current (INa) in bovine chromaffin cells; experiment: Sodium current (INa) block, whole-cell patch clamp in bovine chromaffin cells; type: cell-based; details: for Block of INa: 10 ms pulses to 0 mV, holding -80 mV, 0 mM external Ca2+, pH 7.4, 22–24 °C, end of 3-min superfusion (legend: 1 min), mean ± SEM, n = 3–6 cells; for IC50: peak INa, fit to an exponential function, 1, 3, 10 μM, read-out: IC50 for sodium current blockade
[2] = test system: voltage-dependent potassium current (IKv) in bovine chromaffin cells; experiment: Voltage-dependent potassium current (IKv) block, whole-cell patch clamp in bovine chromaffin cells; type: cell-based; details: for Block of IKv: 10 µM, 400 ms pulses to 100 mV, holding -80 mV, 2 mM Ca2+, 200 μM Cd2+, 22–24 °C, mean ± SEM, n = 3–4 cells
[3] = test system: voltage-dependent Ca^2+ channel (ICa) in bovine chromaffin cells; type: cell-based; details: for Block of ICa: 50 ms pulses to 0 mV, holding -80 mV, 10 mM Ca2+, 5 μM TTX, pH 7.4, 22–24 °C, end of 1-min superfusion; for IC50: peak ICa, fit to an exponential function, 1, 3, 10 μM, read-out: IC50 for calcium current blockade
[4] = test system: intracellular calcium level ([Ca^2+]c) in bovine chromaffin cells; experiment: Intracellular calcium level with Fluo-4-AM in K+-stimulated bovine chromaffin cells; type: cell-based; details: for Reduction of [Ca2+]c: Fluo-4, K+ stimulus (text 35 µM, legend 35 mM), room temperature, fluorescence 488/522 nm, mean ± SEM; for Reduction of fluorescence compared with baseline: p ≤ 0.001; for IC50: K+-stimulated, fit to an exponential function, 1, 3, 10 μM, read-out: IC50 for depression of the intracellular calcium increment
[5] = test system: human neuroblastoma (SH-SY5Y) cells; details: for Cell viability: 24 h
[6] = test system: voltage-gated sodium channels in vertebrates; details: ref [14]; cited from earlier work
Text: (§1) Previously, we investigated the synthetic versions of the linear PpVα and the folded PpVα analog, which contains an internal single disulfide bond, and the linear, chimeric PpVα.

[7] = TFA salt, lyophilized powder, ref China Peptides (custom peptide service), cited from earlier work
[8] = test system: human neuroblastoma (SH-SY5Y) cells
zebrafish larvae = details: cited from earlier work; for LD50 in zebrafish larvae: concentration causing 50% of death
[9] = test system: 6-OHDA-induced neurotoxicity on zebrafish locomotor behavior; details: ROS, dopaminergic neurons, ref [14], cited from earlier work
Text: Previously, we investigated the synthetic versions of the linear PpVα and the folded PpVα analog, which contains an internal single disulfide bond, and the linear, chimeric PpVα. […] [17].

[10] = test system: zebrafish model of epilepsy; details: ref [14]; cited from earlier work
Text: as §1

Cav channels (Cav2.2) = details: cited from earlier work
[11] = 1 μM, mean ± SEM, n = 3–5 cells (legend: 5–6)
[12] = 3 μM, mean ± SEM of 5–6 experiments
[13] = 10 μM, mean ± SEM of 5–6 experiments

Compound	Block of INa ([1]; 3 μM) [%]	Block of INa ([1]; 10 μM) [%]	IC50 [1] [µM]	Block of IKv [2] [%]	Block of ICa [3, 11] [%]	Block of ICa [3, 13] [%]	IC50 [3] [µM]	Reduction of [Ca2+]c ([4]; 1 μM) [%]	Reduction of [Ca2+]c ([4]; 3 μM) [%]	Reduction of [Ca2+]c ([4]; 10 μM) [%]	IC50 [4] [µM]	Cell viability ([5]; 1 μM) [%]	Cell viability ([5]; 3 μM) [%]	Cell viability ([5]; 10 μM) [%]	other results
CC[C@H](C)[C@H](NC(=O)[C@H](CC(C)C)NC(=O)[C@H](CCC(=O)O)NC(=O)CN)C(=O)N[C@@H](CCCCN)C(=O)N[C@@H](CCSC)C(=O)N[C@@H](CCCCN)C(=O)N[C@@H](Cc1ccc(O)cc1)C(=O)N[C@@H](Cc1c[nH]c2ccccc12)C(=O)N[C@H](C(=O)N[C@@H](CC(C)C)C(=O)N[C@@H](CC(N)=O)C(=O)N[C@H](C(=O)N1CCC[C@H]1C(=O)N[C@@H](C)C(=O)N[C@@H](CO)C(=O)N[C@H](C(=O)N[C@@H](CS)C(=O)N[C@@H](CC(=O)O)C(=O)N[C@@H](CCC(=O)O)C(=O)N[C@@H](Cc1ccc(O)cc1)C(=O)N[C@@H](CS)C(=O)N[C@@H](Cc1c[nH]c2ccccc12)C(=O)N[C@@H](CO)C(=O)N[C@@H](CCC(N)=O)C(=O)N[C@@H](CCSC)C(=O)N[C@@H](CC(C)C)C(=O)N[C@@H](CC(C)C)C(=O)N[C@@H](Cc1ccc(O)cc1)C(=O)N[C@@H](CCCCN)C(=O)N[C@@H](CCCCN)C(=O)N[C@@H](CO)C(N)=O)C(C)C)C(C)C)[C@@H](C)CC [CHI] (H-GELIKMKYWILNVPASVCDEYCWSQMLLYKKS-NH2; N-terminus assumed)	22.05 ± 3.61	75.57 ± 5.05	7.65	1.21 ± 2.42	10.74 ± 0.61	63.43 ± 4.76	8.88	33.2 ± 9.4	36.0 ± 8.2	65.0 ± 4.7	6.89	71	73	67	Block of INa ([1]; 1 μM): 14.79 ± 2.16%; Effect on INa at low concentrations ([1]; 1 and 3 μM): no effect on INa; Block of ICa [3, 12]: 14.28 ± 2.08%; Reduction of fluorescence compared with baseline ([4]; 10 μM): more than 60%; Block of voltage-gated sodium channels in vertebrates [6]: effective blockers of voltage-gated sodium channels in vertebrates; Solubility ([7]; in 20%ACN/80%H2O): 1 mg/mL
CC[C@H](C)[C@H](NC(=O)[C@H](Cc1c[nH]c2ccccc12)NC(=O)[C@H](Cc1ccc(O)cc1)NC(=O)[C@@H](N)CCCCN)C(=O)N[C@@H](CC(C)C)C(=O)N[C@@H](CC(N)=O)C(=O)N[C@H](C(=O)N1CCC[C@H]1C(=O)N[C@@H](C)C(=O)N[C@@H](CO)C(=O)N[C@H](C(=O)N[C@@H](CS)C(=O)N[C@@H](CC(=O)O)C(=O)N[C@@H](CCC(=O)O)C(=O)N[C@@H](Cc1ccc(O)cc1)C(=O)N[C@@H](CS)C(=O)N[C@@H](Cc1c[nH]c2ccccc12)C(=O)N[C@@H](CO)C(=O)N[C@@H](CCC(N)=O)C(=O)N[C@@H](CCSC)C(=O)N[C@@H](CC(C)C)C(=O)N[C@@H](CC(C)C)C(=O)N[C@@H](Cc1ccc(O)cc1)C(=O)N[C@@H](CCCCN)C(=O)N[C@@H](CCCCN)C(=O)N[C@@H](CO)C(N)=O)C(C)C)C(C)C [PPA] (H-KYWILNVPASVCDEYCWSQMLLYKKS-NH2; N-terminus assumed)	28.92 ± 4.60	54.32 ± 8.29	9.08	14.04 ± 5.99	19.92 ± 5.32	52.86 ± 8.69	8.77	38.5 ± 7.1	38.7 ± 10.8	60.9 ± 6.1	6.95	77	71	60	Block of INa ([1]; 1 μM): 14.80 ± 5.05%; Block of ICa [3, 12]: 38.50 ± 7.14%; Reduction of fluorescence compared with baseline ([4]; 10 μM): more than 60%; Neuroprotection against veratridine, in words ([8]; veratridine, 24 h): lower neuroprotection than SSB and CHI; Survival rate of zebrafish larvae (zebrafish larvae; 1–30 µM, three different times, ref [14],[53]): decrease in survival rate to a minimum, for example, within 20 min at 3 µM peptide; LD50 in zebrafish larvae (zebrafish larvae; ref [14],[53]): 21.23 µM; Solubility ([7]; in 30%ACN/70%H2O): 1 mg/mL
CC[C@H](C)[C@H](NC(=O)[C@H](Cc1c[nH]c2ccccc12)NC(=O)[C@H](Cc1ccc(O)cc1)NC(=O)[C@@H](N)CCCCN)C(=O)N[C@@H](CC(C)C)C(=O)N[C@@H](CC(N)=O)C(=O)N[C@H](C(=O)N1CCC[C@H]1C(=O)N[C@@H](C)C(=O)N[C@@H](CO)C(=O)N[C@H](C(=O)N[C@H]1CSSC[C@@H](C(=O)N[C@@H](Cc2c[nH]c3ccccc23)C(=O)N[C@@H](CO)C(=O)N[C@@H](CCC(N)=O)C(=O)N[C@@H](CCSC)C(=O)N[C@@H](CC(C)C)C(=O)N[C@@H](CC(C)C)C(=O)N[C@@H](Cc2ccc(O)cc2)C(=O)N[C@@H](CCCCN)C(=O)N[C@@H](CCCCN)C(=O)N[C@@H](CO)C(N)=O)NC(=O)[C@H](Cc2ccc(O)cc2)NC(=O)[C@H](CCC(=O)O)NC(=O)[C@H](CC(=O)O)NC1=O)C(C)C)C(C)C [SSB] (H-KYWILNVPASVCDEYCWSQMLLYKKS-NH2; disulfide 12-16; N-terminus assumed)	52.01 ± 11.02	73.76 ± 6.37	3.15	12.84 ± 4.19	10.10 ± 7.22	74.46 ± 5.00	9.68	28.1 ± 6.0	33.3 ± 7.9	42.7 ± 7.4	26	75	68	65	Effect on voltage-dependent potassium current ([2]; up to 10 µM): no effect on IKv was observed; LD50 in zebrafish larvae (zebrafish larvae; ref [14],[53]): 10.88 µM; Toxicity relative to the linear peptide (zebrafish larvae; zebrafish model, ref [14]): less toxic than the linear peptide; Effect on 6-OHDA-induced neurotoxicity ([9]; listed as folded PpVα): reversing the 6-hydroxydopamine (6-OHDA)-induced neurotoxicity on zebrafish locomotor behavior; also recorded: preventing the 6-OHDA-induced excessive ROS generation and subsequent dopaminergic neuron loss; Effect on 6-OHDA-induced neurotoxicity ([9]; listed as folded peptide): more effective than the linear unfolded peptide in suppressing 6-OHDA-induced neurotoxicity on locomotor behavior in zebrafish; Effect on 6-OHDA-induced neurotoxicity ([9]; listed as folded-PpVα): prevented the 6-OHDA-induced excessive ROS generation and subsequent dopaminergic neuron loss; Block of voltage-gated sodium channels in vertebrates [6]: effective blockers of voltage-gated sodium channels in vertebrates; Antiepileptic and neuroprotective activities [10]: displayed antiepileptic and neuroprotective activities; Solubility ([7]; in 30%ACN/70%H2O): 1 mg/mL
COc1ccc2[nH]cc(CCNC(C)=O)c2c1 [melatonin, reference compound]	–	–	–	–	–	–	–	–	–	–	–	–	–	–	Reversion of cell damage ([5]; O/R (3 μM/4 μM) 24 h): approximately 80%; Cell viability with MLT ([5]; positive control against O/R, mean): 82%
NC1=N[C@H](O)[C@H]2[C@H]3O[C@]4(O)O[C@@H]([C@@H](O)[C@@]2(N1)[C@@H]4O)[C@]3(O)CO [tetrodotoxin]	–	–	–	–	–	–	–	–	–	–	–	–	–	–	Cell viability with TTX [8]: 85.41%; Neuroprotection against veratridine, in words [8]: almost wholly reverted the cellular damage
COc1ccc(C(=O)O[C@H]2CC[C@@]3(C)[C@@H]4CC[C@H]5[C@]6(O)C[C@H](O)[C@@]7(O)[C@@H](CN8C[C@@H](C)CC[C@H]8[C@@]7(C)O)[C@]6(O)C[C@@]53O[C@]24O)cc1OC [veratridine]	–	–	–	–	–	–	–	–	–	–	–	–	–	–	Cell viability, inducer alone (VTD) ([8]; veratridine 24 h, no peptide, untreated control 100, mean): 49.21%; Mortality rate compared with untreated cells ([8]; veratridine, 24 h): 50%
ziconotide	–	–	–	–	–	–	–	–	–	–	–	–	–	–	Cav channel inhibition (Cav channels (Cav2.2)): highly selective and potent inhibitor of Cav channels
